Assay results: patent US20260078114A1, “COMPOUND USED AS INHIBITOR OF CDK4 KINASE AND USE THEREOF” (TYK MEDICINES, INC., priority 2022, published 2026)
Read-outs that look alike come from different tables or passages of the source.

How the values were obtained:
[1] = test system: Human breast cancer cell MCF-7; experiment: Cellular antiproliferative assay (MTT, 5 days), MCF-7; assay type: cell-based; conditions: MCF-7 cells, 5 days incubation
Protocol: (§1) Human breast cancer cell MCF-7, ovarian cancer cell A2780, human mantle cell lymphoma cell JEKO-1. DMEM medium (Bio-Channel), DMSO (dimethyl sulfoxide), MTT (thiazolyl blue), 0.25% EDTA-Tripsin (tryptic digest), 1×PBS (phosphate buffer, PH7.2), 96-well plate (Corning), fetal bovine serum (FBS), 10,000 U/mL penicillin-G/streptomycin, high-speed cryo-centrifuge (EPPENDORF 5810R), enzyme-linked immunoassay (Tecan Spark).
(§2) • A) Tumor cells were cultured in DMEM (high sugar with 10% FBS and 100 U/mL penicillin-G/streptomycin) at 37° C., 5% CO2 and saturated humidity until 80-90% dense. • B) Removed the culture medium from 10 cm Petri dishes; • C) Rinsed the cells once with 10 ml 1×PBS; • D) Added 4 ml 0.25% EDTA-Tripsin into 37° C., 5% CO2 incubator for trypsin digestion for 5 minutes, transferred to 15 ml centrifuge tube, centrifuged at 200 g for 5 minutes, discarded the supernatant to get cell precipitate; • E) Resuspended with 4 ml DMEM medium, counted and adjust to 50,000 cells/ml. • F) Added cell suspension to 96-well plate with 100 μL per well volume and incubated overnight at 37° C., 5% CO2 incubator.
(§3) • A) Preparation of gradient dilution solution of the tested compound: the test compound was configured into 1 mM reservoir solution.
(§4) • A) Taking the cell culture plate and adding 10 μL of 5 mg/ml MTT in the biosafety cabinet; • B) Putting the cell culture plate back into the incubator and continued incubation for 3 hours; • C) Taking the cell culture plate and removing the culture medium, adding 100 μL isopropanol (containing 0.4 mM HCl, 0.1% NP-40), and shaking the bed at room temperature for 30 min; and • D) Determining the absorbance value by selecting 570 nm on a TECAN enzyme-linked immunoassay detector.
(§5) The % Cell Viability was calculated using the following formula:
(§6) [formula] • Lum_HC: 0.1% DMSO control cell reading • Lum_Sample: cell readings with compound added • Lum_LC: Blank medium reading

[2] = test system: human mantle cell lymphoma cell JEKO-1; experiment: Cellular antiproliferative assay (MTT, 5 days), JEKO-1; assay type: cell-based; conditions: JEKO-1 cells, 5 days incubation
Protocol: as §1, §2, §3, §4, §5, §6

[3] = test system: ovarian cancer cell A2780; experiment: Cellular antiproliferative assay (MTT, 5 days), A2780; assay type: cell-based, human; conditions: A2780 cells, 5 days incubation
Protocol: as §1, §2, §3, §4, §5, §6

CDK6/CyclinD3 = CDK6/CyclinD3 (Homo sapiens, UniProt Q00534); experiment: Kinase activity test (mobility shift assay, EZ Reader), CDK6; assay type: biochemical; conditions: CDK6/CyclinD3 5.00 nM, ATP 350 μM, FL-Peptide34
CDK6/CyclinD3, sequence (Q00534 whole entry, species assumed): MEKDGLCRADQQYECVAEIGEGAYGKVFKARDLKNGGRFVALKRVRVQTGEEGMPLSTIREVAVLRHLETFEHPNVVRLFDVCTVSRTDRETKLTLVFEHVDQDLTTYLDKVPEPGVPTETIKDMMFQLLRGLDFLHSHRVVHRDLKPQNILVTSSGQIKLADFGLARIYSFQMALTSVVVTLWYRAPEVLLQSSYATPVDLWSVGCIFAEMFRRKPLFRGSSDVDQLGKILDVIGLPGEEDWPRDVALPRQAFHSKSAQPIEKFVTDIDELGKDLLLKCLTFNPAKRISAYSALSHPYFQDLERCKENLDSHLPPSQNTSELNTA
CDK6/CyclinD3, sequence (P30281 whole entry partner, species assumed): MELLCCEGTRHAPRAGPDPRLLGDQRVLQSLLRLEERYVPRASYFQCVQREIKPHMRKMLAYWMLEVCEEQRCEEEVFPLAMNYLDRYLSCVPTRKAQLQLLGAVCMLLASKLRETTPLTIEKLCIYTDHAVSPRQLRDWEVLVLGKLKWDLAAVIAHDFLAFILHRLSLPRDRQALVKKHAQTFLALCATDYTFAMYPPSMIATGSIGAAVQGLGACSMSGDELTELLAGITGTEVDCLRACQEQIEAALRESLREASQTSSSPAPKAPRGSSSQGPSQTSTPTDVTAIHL

SMILES | IC50 ([1]; Homo sapiens, MCF7, 120 h) [nM] | IC50 ([2]; Homo sapiens, 120 h) [nM] | IC50 ([3]; Homo sapiens, 120 h) [nM] | IC50 (CDK6/CyclinD3) [nM] | IC50 ([1]; read-out: MCF7 IC50) [nM] | IC50 [2] [nM] | IC50 [3] [nM]
CN1CCCn2c1nc1c(F)cc(-c3nc(Nc4ccncc4)ncc3Cl)cc12 [TB-90] | 500 to 2000 | ≤ 500 | ≤ 500 |  |  |  | 
C[C@@H]1CCN(C)c2nc3c(F)cc(-c4nc(N[C@@H]5CCOC[C@H]5O)ncc4Cl)cc3n21 [TB-91, (3S,4R)-4-((5-chloro-4-((R)-9-fluoro-1,4-dimethyl-1,2,3,4-tetrahydrobenzo[4,5]imidazo[1,2-a]pyrimidin-7-yl)pyrimidin-2-yl)amino)tetrahydro-2H-pyran-3-ol] | ≤ 500 | ≤ 500 | ≤ 500 |  |  |  | 
COC(=O)N1CCC(Nc2ncc(Cl)c(-c3cc(F)c4nc5n(c4c3)CCCN5C)n2)CC1 [TB-93, methyl 4-((5-chloro-4-(9-fluoro-1-methyl-1,2,3,4-tetrahydrobenzo[4,5]imidazo[1,2-a]pyrimidin-7-yl)pyrimidin-2-yl)amino)piperidine-1-carboxylate] | 500 to 2000 | ≤ 500 | ≤ 500 | > 500 |  |  | 
CN1CCCn2c1nc1c(F)cc(-c3nc(NC4CCC(F)(F)CC4)ncc3Cl)cc12 [TB-95, 5-chloro-N-(4,4-difluorocyclohexyl)-4-(9-fluoro-1-methyl-1,2,3,4-tetrahydrobenzo[4,5]imidazo[1,2-a]pyrimidin-7-yl)pyrimidin-2-amine] |  |  |  | > 500 |  |  | 
COCc1cc(Nc2ncc(Cl)c(-c3cc(F)c4nc5n(c4c3)CCCN5C)n2)ccn1 [TB-130, 5-chloro-4-(9-fluoro-1-methyl-1,2,3,4-tetrahydrobenzo[4,5]imidazo[1,2-a]pyrimidin-7-yl)-N-(2-(methoxymethyl)pyridin-4-yl)pyrimidin-2-amine] | ≤ 500 | ≤ 500 | ≤ 500 |  |  |  | 
CN1CCCn2c1nc1c(F)cc(-c3nc(NC4CCOCC4)ncc3Cl)cc12 [TB-132, 5-chloro-4-(9-fluoro-1-methyl-1,2,3,4-tetrahydrobenzo[4,5]imidazo[1,2-a]pyrimidin-7-yl)-N-(tetrahydro-2H-pyran-4-yl)pyrimidin-2-amine] | 500 to 2000 | ≤ 500 | ≤ 500 |  |  |  | 
CN1CCCn2c1nc1c(F)cc(-c3nc(Nc4ccc(C#N)cc4)ncc3Cl)cc12 [TB-133, 4-((5-chloro-4-(9-fluoro-1-methyl-1,2,3,4-tetrahydrobenzo[4,5]imidazo[1,2-a]pyrimidin-7-yl)pyrimidin-2-yl)amino)benzonitrile] | ≤ 500 | ≤ 500 | ≤ 500 |  |  |  | 
CCS(=O)(=O)N1CCC(Nc2ncc(Cl)c(-c3cc(F)c4nc5n(c4c3)CCCN5C)n2)CC1 [TB-143, 5-chloro-N-(1-(ethylsulfonyl)piperidin-4-yl)-4-(9-fluoro-1-methyl-1,2,3,4-tetrahydrobenzo[4,5]imidazo[1,2-a]pyrimidin-7-yl)pyrimidin-2-amina] | ≤ 500 | ≤ 500 | ≤ 500 |  |  |  | 
CNS(=O)(=O)N1CCC(Nc2ncc(Cl)c(-c3cc(F)c4nc5n(c4c3)CCCN5C)n2)CC1 [TB-144, 4-((5-chloro-4-(9-fluoro-1-methyl-1,2,3,4-tetrahydrobenzo[4,5]imidazo[1,2-a]pyrimidin-7-yl)pyrimidin-2-yl)amino)-N-methylpiperidine-1-sulfonamide] | ≤ 500 | ≤ 500 | ≤ 500 |  |  |  | 
CC1(C)CSc2nc3c(F)cc(-c4nc(N[C@@H]5CCOC[C@H]5O)ncc4Cl)cc3n2C1 [TB-146] |  |  |  |  | ≤ 500 | ≤ 500 | ≤ 500
C[C@H]1CCN(C)c2nc3c(F)cc(-c4cc(N[C@@H]5CCOC[C@H]5O)ncc4Cl)cc3n21 [TB-149] |  |  |  |  | ≤ 500 | ≤ 500 | ≤ 500
C[C@H]1C[C@H](C)n2c(nc3c(F)cc(-c4nc(N[C@@H]5CCOC[C@H]5O)ncc4Cl)cc32)N1C [TB-153] | ≤ 500 | ≤ 500 | ≤ 500 |  |  |  | 
C[C@@H]1C[C@H](C)n2c(nc3c(F)cc(-c4nc(N[C@@H]5CCOC[C@H]5O)ncc4Cl)cc32)N1C [TB-154] | ≤ 500 | ≤ 500 | ≤ 500 |  |  |  | 
CN1C(=O)CC(C)(C)n2c1nc1c(F)cc(-c3cc(N[C@@H]4CCOC[C@H]4O)ncc3Cl)cc12 [TB-162] |  |  |  |  | ≤ 500 | ≤ 500 | ≤ 500
